The values that follow come from patent US9499530B2 (HANGZHOU MINSHENG INSTITUTES FOR PHARMA RESEARCH, priority 2011, dated 2016).

Entries after “also recorded” stand apart in the source; their conditions may differ.

For one data set, the system named is NCI-H1975 xenograft. As to the kind of experiment: Growth inhibition of NCI-H1975 xenograft in nude mice. The class given is in vivo. The conditions noted are these: for T/C (%) / Tumor volume (mm^3) D 28: 5 consecutive days weekly for four weeks, D 28; for activity against NC1-H1975 (in words): tumor line with gene mutation, resistant to lapatinib. The method, then:
Administration route: intragastric administration. Administration volume: 0.1 ml/10 g. Administration and frequency: administrating for 5 consecutive days and suspending administration for two days weekly for four weeks. Observation time: continuous observation for 28 days after starting administration. The tumor volume was measured twice a week. At the end of the experiment, the animals were sacrificed, weighed and photographed. Statistical method: SPSS 10.0 statistical software package, one-factor analysis of variance.

Data set [1] relates to human lung cancer A549 xenograft. As to the kind of experiment: Growth inhibition of A549 xenograft in nude mice. The class given is in vivo. The conditions noted are these: for TV (mm^3) End / TV (mm^3) Start / T/C (%): A549 xenograft; for TV (mm^3) End / TV (mm^3) Start / Weight (g) End / Weight (g) Start / T/C (%): 200 mg/kg intragastric; for TV (mm^3) End / Weight (g) End / T/C (%): 5 times per week for four weeks; for TV (mm^3) Start / Weight (g) Start: start of dosing; for Weight (g) End / Weight (g) Start: nude mice with A549 xenograft; for T/C (%): relative tumor growth ratio. From the text: Objective of the test: Determining the inhibition of some compounds of the present invention to the growth of human lung cancer A549 transplanted into nude mice and the action intensity thereof.
1. Human lung cancer A549 xenograft in nude mice, which was set up by subcutaneously transplantion of the human lung cancer A549 cell lines into right axillary fossa of nude mice. The amount of inoculation is 2×10^6 cells/mouse. Xenograft inoculated into the nude mice was passaged for 3 generations before use.
2. The solvent used in the experiments is: 0.5% of hydroxypropylmethyl cellulose and 0.1% of Tween-80.
3. Vigorous growing tumor tissues were selected to be chopped into approximately 1 mm^3. Under sterile conditions, the tumor tissue blocks were subcutaneously transplanted into right axillary fossa of nude mice. The diameters of the xenograft in nude mice were measured with a vernier caliper. When tumors reached approximately 100-300 mm^3 in size, the animals were randomly divided into groups, wherein there are 12 animals in solvent control group, and 6 animals per group in the other groups. […] The administered dosages were both 200 mg/kg, 5 times per week for consecutive four weeks. The diameters of the tumors were measured twice per week. The negative control group was intragastricly administrated the same amount of solvent. After the experiment, the mice were sacrificed. The tumors were surgically stripped and weighed. The tumor volume (TV) was calculated by the following equation:
[formula] in which a and b represents for the length and the width respectively.
According to the measured results, the relative tumor volume (RTV) was calculated. The calculation equation was: RTV=Vt/V0, wherein V0 is the tumor volume measured during cage administration (i.e. d0), Vt is the tumor volume of each measurement. The evaluation index of anti-tumor activity was the relative tumor growth ratio T/C (%), which was calculated by the following equation: […]
TRTV: treatment group's RTV; CRTV: negative control group's RTV.

Data set [2] addresses KDR (Vascular Endothelial Growth Factor Receptor 2) (Homo sapiens, UniProt P35968). As to the kind of experiment: ELISA protein tyrosine kinase inhibition, KDR. The class given is biochemical. The conditions noted are these: for IC50: ELISA, Poly(Glu, Tyr) 4:1 substrate, ATP 5 μM, test samples at 10-5 mol/l, read-out: KDR inhibitory activity (IC50 class). From the text:
(§1) Determining the Effect of Test Samples at a Concentration of 10-5 Mol/l on the Activity of the Substrate Phosphoryation Catalyzed by EGFR (Epidermal Growth Factor Receptor 1), ErbB-2 (Epidermal Growth Factor Receptor 2), ErbB-4, KDR (Vascular Endothelial Growth Factor Receptor 2) Protein Tyrosine Kinases at Molecular Level
(§2) Enzyme-Linked Immunosorbent Assay (ELISA)
(§3) Main instrument: wavelength-tunable microplate reader (VERSAmax).
(§4) Main reagents: kinase reaction substrate Poly(Glu, Tyr) 4:1 from Sigma; anti-phosphotyrosine monoclonal antibody PY99 from Santa Cruz; horseradish peroxidase-labeled goat anti-mouse IgG from Calbiochem; ATP, DTT, OPD from Amresco, and ELISA plate from Corning.
(§5) Poly(Glu, Tyr)4:1 as an enzyme substrate was diluted by potassium ion-free PBS into 20 μg/ml, and an ELISA plate was coated and subjected to reaction for 12-16 h at 37° C. After the liquid in wells was removed, the plate was washed three time by T-PBS, 5 min for each time. The ELISA plate was then dried in an oven at 37° C. The coated wells were added with the test samples: the test samples were prepared for a stock solution with a concentration of 1×10^−2M in DMSO. The aliquot solution was stored at −20° C., and diluted to the desired concentration with reaction buffer before use. The resulting solution was added into the wells so that the final concentration of 10-5 mol/l in 100 μL reaction system can be obtained. At the same time, a positive control well was set up and a positive control compound Su11248 was added. ATP and test tyrosine kinases were added: ATP solution diluted with reaction buffer was added (the final concentration of ATP is 5 μM). Finally, the test tyrosine kinases solution diluted with reaction buffer was added. The total volume of the reaction system was […]. Meanwhile, a negative control well and a control well without enzyme were set up. The reaction system was placed in a wet box, and shaked for 1 hour at 37° C., shielding from light. After the reaction was complete, the plate was washed by T-PBS three times. Antibody PY99 was added at 100 μL/well; and the plate was shaked for 30 min at 37° C. After the reaction was complete, the plate was washed with T-PBS three times. Horseradish peroxidase-labeled goat anti-mouse IgG was added at 100 μL/well, and the plate was shaked for 30 min at 37° C. The plate was washed with T-PBS three times. OPD developing liquid was added at 100 μL/well, and reacted for 1-10 min at room temperature, shielding from light. 50 μL of 2 M H2SO4 was added to stop the reaction. A492 value was determined using wavelength-tunable microplate reader. The inhibition ratio of the samples can be calculated by the following equation: […]

Data set [3] has as its target ErbB-2 (Epidermal Growth Factor Receptor 2) (Homo sapiens, UniProt P04626). In words: ELISA protein tyrosine kinase inhibition, ErbB-2. The class given is biochemical. Conditions: Poly(Glu, Tyr) 4:1 substrate, ATP 5 μM, test samples at 10-5 mol/l, read-out: ErbB2 inhibitory activity (IC50 class).
Source text: as §1, §2, §3, §4, §5
In general terms: An ELISA detects its analyte on a solid surface through an enzyme-linked reagent.

The target of data set [4] is EGFR (Epidermal Growth Factor Receptor 1) (Homo sapiens, UniProt P00533). In words: ELISA protein tyrosine kinase inhibition, EGFR. The format is biochemical. Conditions: for IC50: ELISA, Poly(Glu, Tyr) 4:1 substrate, ATP 5 μM, test samples at 10-5 mol/l, read-out: EGFR inhibitory activity (IC50 class).
Source text: as §1, §2, §3, §4, §5

For the next data set, the target named is ErbB-4 (Homo sapiens, UniProt Q15303). As to the kind of experiment: ELISA protein tyrosine kinase inhibition, ErbB-4. The format is biochemical. The conditions noted are these: for IC50: ELISA, Poly(Glu, Tyr) 4:1 substrate, ATP 5 μM, test samples at 10-5 mol/l, read-out: ErbB4 inhibitory activity (IC50 class).
Source text: as §1, §2, §3, §4, §5

[5] abbreviates: NC1-H1975 xenograft, intragastric.

KDR (Vascular Endothelial Growth Factor Receptor 2), sequence (P35968 20-1356): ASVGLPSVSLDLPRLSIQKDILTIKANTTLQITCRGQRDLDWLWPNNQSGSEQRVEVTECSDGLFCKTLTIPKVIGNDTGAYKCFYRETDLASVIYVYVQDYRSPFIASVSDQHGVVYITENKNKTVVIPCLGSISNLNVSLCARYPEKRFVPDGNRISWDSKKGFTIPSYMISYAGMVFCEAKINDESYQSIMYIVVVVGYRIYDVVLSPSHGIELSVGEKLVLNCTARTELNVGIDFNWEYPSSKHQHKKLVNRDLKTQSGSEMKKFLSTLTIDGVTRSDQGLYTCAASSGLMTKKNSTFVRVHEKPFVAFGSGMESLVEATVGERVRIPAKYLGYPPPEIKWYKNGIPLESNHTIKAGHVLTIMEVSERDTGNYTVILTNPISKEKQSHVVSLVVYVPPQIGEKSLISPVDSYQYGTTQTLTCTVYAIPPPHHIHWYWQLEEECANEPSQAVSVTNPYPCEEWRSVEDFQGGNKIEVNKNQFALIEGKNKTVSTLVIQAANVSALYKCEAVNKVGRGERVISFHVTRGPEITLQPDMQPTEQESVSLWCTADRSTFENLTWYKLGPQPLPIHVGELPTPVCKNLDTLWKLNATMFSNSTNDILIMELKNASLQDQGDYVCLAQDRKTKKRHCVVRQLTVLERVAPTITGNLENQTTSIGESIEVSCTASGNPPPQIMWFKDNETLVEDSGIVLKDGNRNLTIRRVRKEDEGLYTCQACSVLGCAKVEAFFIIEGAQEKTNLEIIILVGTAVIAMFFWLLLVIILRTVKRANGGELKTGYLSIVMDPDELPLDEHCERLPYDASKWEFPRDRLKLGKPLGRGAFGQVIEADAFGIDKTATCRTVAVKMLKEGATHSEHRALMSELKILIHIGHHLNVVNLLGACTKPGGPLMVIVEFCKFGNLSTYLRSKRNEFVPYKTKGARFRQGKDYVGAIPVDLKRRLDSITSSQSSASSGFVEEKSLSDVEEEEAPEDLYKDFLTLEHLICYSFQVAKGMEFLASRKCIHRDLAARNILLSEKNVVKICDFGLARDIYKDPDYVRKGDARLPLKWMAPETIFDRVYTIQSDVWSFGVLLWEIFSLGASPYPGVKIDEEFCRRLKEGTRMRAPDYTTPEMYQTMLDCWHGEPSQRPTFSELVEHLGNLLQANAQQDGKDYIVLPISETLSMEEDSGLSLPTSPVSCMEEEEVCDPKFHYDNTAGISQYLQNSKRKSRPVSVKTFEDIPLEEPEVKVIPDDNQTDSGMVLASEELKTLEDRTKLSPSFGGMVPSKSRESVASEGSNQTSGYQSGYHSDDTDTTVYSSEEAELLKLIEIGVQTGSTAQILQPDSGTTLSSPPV
ErbB-4, sequence (Q15303 26-1308): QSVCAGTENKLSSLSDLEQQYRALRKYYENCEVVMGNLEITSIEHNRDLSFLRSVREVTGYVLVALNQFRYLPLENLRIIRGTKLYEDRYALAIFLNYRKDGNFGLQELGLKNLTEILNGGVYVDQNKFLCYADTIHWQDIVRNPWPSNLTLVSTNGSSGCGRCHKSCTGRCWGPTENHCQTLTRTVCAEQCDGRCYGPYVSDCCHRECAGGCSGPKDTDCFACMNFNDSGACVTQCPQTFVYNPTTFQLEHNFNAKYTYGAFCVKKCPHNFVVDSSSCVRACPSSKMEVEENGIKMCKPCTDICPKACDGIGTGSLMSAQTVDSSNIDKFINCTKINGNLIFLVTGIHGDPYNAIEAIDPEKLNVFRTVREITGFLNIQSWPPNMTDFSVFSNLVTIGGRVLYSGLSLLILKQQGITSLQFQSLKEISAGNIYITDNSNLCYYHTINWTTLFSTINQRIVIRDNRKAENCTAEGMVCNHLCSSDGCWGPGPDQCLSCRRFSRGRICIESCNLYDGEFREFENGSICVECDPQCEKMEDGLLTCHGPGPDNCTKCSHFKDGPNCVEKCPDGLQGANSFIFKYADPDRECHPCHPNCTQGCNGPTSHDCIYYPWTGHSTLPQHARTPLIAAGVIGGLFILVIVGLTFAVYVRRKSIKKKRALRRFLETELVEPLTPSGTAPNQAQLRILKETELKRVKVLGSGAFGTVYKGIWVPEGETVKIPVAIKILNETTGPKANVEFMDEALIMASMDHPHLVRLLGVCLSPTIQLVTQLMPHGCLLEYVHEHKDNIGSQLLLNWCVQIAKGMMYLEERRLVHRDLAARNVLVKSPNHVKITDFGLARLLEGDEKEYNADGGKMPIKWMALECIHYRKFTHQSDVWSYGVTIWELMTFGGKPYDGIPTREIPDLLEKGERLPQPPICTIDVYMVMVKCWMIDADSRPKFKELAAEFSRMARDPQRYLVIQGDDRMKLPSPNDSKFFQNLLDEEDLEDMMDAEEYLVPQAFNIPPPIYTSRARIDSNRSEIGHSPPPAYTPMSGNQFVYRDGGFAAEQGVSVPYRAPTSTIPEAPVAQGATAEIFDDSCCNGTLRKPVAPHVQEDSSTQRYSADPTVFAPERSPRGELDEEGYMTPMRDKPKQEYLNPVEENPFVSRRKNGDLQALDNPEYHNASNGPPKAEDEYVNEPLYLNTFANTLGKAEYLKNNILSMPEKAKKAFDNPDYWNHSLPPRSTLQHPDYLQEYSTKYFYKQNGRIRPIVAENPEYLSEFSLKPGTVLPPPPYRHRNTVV

As to `COc1cc2ncnc(Nc3ccc(F)c(Cl)c3)c2cc1OCCCN1CCOCC1` [Gefitinib], in the data set on NCI-H1975 xenograft (setting [5]), the “T/C (%)” value came to 87.89% and the “Tumor volume (mm^3) D 28” value is recorded as 2164.44 ± 1064.85 mm^3. Also, the “activity against NC1-H1975 (in words)” value in the data set on NCI-H1975 xenograft is listed as “almost no activity”.
For the molecule `CS(=O)(=O)CCNCc1ccc(-c2ccc3ncnc(Nc4ccc(OCc5cccc(F)c5)c(Cl)c4)c3c2)o1` [Lapatinib, lapatinib, reference compound], in data set [1], the “TV (mm^3) End” value is listed as 943.2 ± 225.7^▴ mm^3, the “TV (mm^3) Start” value worked out at 153.6 ± 64.8 mm^3, the “Weight (g) End” value came to 26.3 ± 3.3 g and the “Weight (g) Start” value is 24.1 ± 2.9 g. For the same molecule, in the data set on NCI-H1975 xenograft (setting [5]), the “T/C (%)” value worked out at 104.26% and the “Tumor volume (mm^3) D 28” value was found to be 2420.50 ± 1405.01 mm^3.
One may read the IC50 as the concentration at which inhibition is half-maximal. For `OCCCCNCc1ccc(-c2ccc3ncnc(Nc4ccc(OCc5cccc(F)c5)c(Cl)c4)c3c2)o1` [MS1·dimethanesulfonate, N-(3-chloro-4-((3-fluorobenzyl)oxy)phenyl)-6-(5-(((4-hydroxybutyl)amino)methyl)-2-furyl)-4-quinazolinamine], the IC50 (in data set [2]; in data set [3]; in data set [4]; on ErbB-4) was below 10 µM in each case.
`OCC(CO)NCc1ccc(-c2ccc3ncnc(Nc4ccc(OCc5cccc(F)c5)c(Cl)c4)c3c2)o1` [MS6·dimethanesulfonate, N-(3-chloro-4-((3-fluorobenzyl)oxy)phenyl)-6-((5-(2-(1,3-dihydroxypropyl)amino)methyl)-2-furyl)-4-quinazolinamine]: the IC50 in data set [2] was below 10 µM. In addition, the IC50 in data set [3] was below 10 µM. In addition, in data set [1], the “TV (mm^3) End” value is 844.5 ± 240.3^▴ mm^3, the “TV (mm^3) Start” value worked out at 156.9 ± 64.5 mm^3, the “T/C (%)” value is on record as 39.3% and the “Weight (g) End” value is 25.2 ± 1.4 g. For the same molecule, the “Weight (g) Start” value in data set [1] is recorded as 24.9 ± 1.3 g. For the same molecule, the IC50 in data set [4] is below 10 µM. Moreover, on ErbB-4, the IC50 was below 10 µM.
Consider `OCCN(CCO)Cc1ccc(-c2ccc3ncnc(Nc4ccc(OCc5cccc(F)c5)c(Cl)c4)c3c2)o1` [MS18·dimethanesulfonate, N-(3-chloro-4-((3-fluorobenzyl)oxy)phenyl)-6-(5-((bis(2-hydroxyethyl)amino)methyl)-2-furyl)-4-quinazolinamine], for which the IC50 (in data set [2]; in data set [3]; in data set [4]; at ErbB-4) was below 10 µM in each case.
In the case of `OCCNCc1ccc(-c2ccc3ncnc(Nc4ccc(OCc5cccc(F)c5)c(Cl)c4)c3c2)o1` [MS27·dimethanesulfonate, N-(3-chloro-4-((3-fluorobenzyl)oxy)phenyl)-6-(5-(((2-hydroxyethyl)amino)methyl)-2-furyl)-4-quinazolinamine], in data set [2], the IC50 was below 10 µM. Also, the IC50 in data set [3] was below 10 µM. Further, in data set [1], the “TV (mm^3) End” value was 775.6 ± 215.4^▴ mm^3, the “TV (mm^3) Start” value was 155.3 ± 71.2 mm^3, the “T/C (%)” value is recorded as 36.4% and the “Weight (g) End” value came out at 25.6 ± 2.2 g. Also, the “Weight (g) Start” value in data set [1] came out at 25.0 ± 2.7 g. Also, in data set [4], the IC50 was below 10 µM. In addition, at ErbB-4, the IC50 was below 10 µM. For the same molecule, in the data set with NCI-H1975 xenograft (setting [5]), the “T/C (%)” value is given as 49.8^★ % and the “Tumor volume (mm^3) D 28” value is 1214.25 ± 944.16^★ mm^3. In addition, in the data set on NCI-H1975 xenograft (NC1-H1975 xenograft, intragastric, D 0), the “Tumor volume (mm^3) D 0” value was found to be 97.06 ± 38.91 mm^3. For the same molecule, in the data set with NCI-H1975 xenograft, the “activity against NC1-H1975 (in words)” value is recorded as “good activity”.
As to `OCC(O)CNCc1ccc(-c2ccc3ncnc(Nc4ccc(OCc5cccc(F)c5)c(Cl)c4)c3c2)o1` (stereo not shown) [MS31·dimethanesulfonate, N-(3-chloro-4-((3-fluorobenzyl)oxy)phenyl)-6-(5-((1-(2,3-dihydroxypropyl)amino)methyl)-2-furyl)-4-quinazolinamine], the IC50 (in data set [2]; in data set [3]; in data set [4]; on ErbB-4) was below 10 µM throughout.
Regarding `OCCCNCc1ccc(-c2ccc3ncnc(Nc4ccc(OCc5cccc(F)c5)c(Cl)c4)c3c2)o1` [MS42·di-p-toluenesulfonate, N-(3-chloro-4-((3-fluorobenzyl)oxy)phenyl)-6-(5-(((3-hydroxypropyl)amino)methyl)-2-furyl)-4-quinazolinamine], the IC50 (in data set [2]; in data set [3]; in data set [4]; at ErbB-4) was below 10 µM each time.
Turning to `O=C(O)CCC(NCc1ccc(-c2ccc3ncnc(Nc4ccc(OCc5cccc(F)c5)c(Cl)c4)c3c2)o1)C(=O)O` (stereo not shown) [MS 23, N-(3-chloro-4-((3-fluorobenzyl)oxy)phenyl)-6-(5-(((1,3-dicarboxypropyl)amino)methyl)-2-furyl)-4-quinazolinamine], in data set [2], the “inhibitory activity against KDR (in words)” value is “better inhibitory activity; also recorded: higher inhibitory activity” and the IC50 was below 10 µM. Moreover, the IC50 in data set [3] was below 10 µM. For the same molecule, in data set [1], the “TV (mm^3) End” value is listed as 804.3 ± 230.3^▴ mm^3, the “TV (mm^3) Start” value is recorded as 153.5 ± 74.8 mm^3, the “T/C (%)” value came to 38.2% and the “Weight (g) End” value worked out at 25.7 ± 2.0 g. Moreover, the “Weight (g) Start” value in data set [1] is listed as 25.3 ± 1.5 g. For the same molecule, the “growth inhibition of human lung cancer A549 compared with positive control lapatinib (in words)” value in data set [1] (xenograft in nude mice, 200 mg/kg) is “better effective inhibition; also recorded: better growth inhibition effect”. The half-maximal inhibitory concentration (IC50) in data set [4] is below 10 µM. Besides, the IC50 at ErbB-4 is below 10 µM.
With “N-(3-chloro-4-((3-fluorobenzyl)oxy)phenyl)-6-(5-((morpholinyl)methyl)-2-thienyl)-4-quinazolinamine [MS 33]”, the IC50 in data set [2] was above 10 µM; in data set [3], above 10 µM; in data set [4] it was below 10 µM; at ErbB-4 it was below 10 µM. In addition, the “inhibitory activity against EGFR (in words)” value in data set [4] was “better inhibitory activity”. Further, at ErbB-4, the “inhibition of c-ErbB4/HER4 (in words)” value is “very good inhibition”.
